Where two headings read alike, the source gives them in different places.
Legend:
HIV-1 virus [1] = test: Action of the products on the cytopathogenic effect of the HIV-1 virus in MT4 cells; format: cell-based, HIV-1 virus (LAV strain); details: for minimal effective concentration: Human immunodeficiency virus 1, MT4, 168 h
Method: Each product was dissolved in DMSO at a concentration of 10^-3 M (stock solution), then in the culture medium immediately before use. The solution thus obtained was sterilized by filtration on a 0.22μ Millipore, then successive dilutions were made in the culture medium.
The line of MT4 cells is cultivated at a concentration of 3×10^5 cells/ml in a RPM1640 medium containing 10% of fetal calf serum, 1% of antibiotics and 1% of glummine.
The action of the products on the cytopathogenic effect of the HIV-1 virus was studied with the aid of the line of MT4 cells. This line is a line of human T cells transformed by the HTLV-1 virus. These cells are particularly sensitive to the HIV-1 virus since 6 to 7 days after superinfection by tiny quantities of HIV-1 virus, they show a considerable cytopathogenic effect leading to the death of 10 to 80% of the cells. The cytopathogenic effect is directly correlated with the infection of the cells by the virus, with its intracellular replication and with the expression of the viral antigens by the cells. An inhibition of this effect thus corresponds to an inhibition of the multiplication of the HIV-1 virus.
It is a question of supernatants of lymphoblastoid T cells (CEM line) infected by the HIV-1 virus (LAV strain). The activity of the undiluted viral preparation used for the human lymphocytes was 20000 cpm/ml.
d) Action of the products on the cytopathogenic effect of the HIV-1 virus in the case of the MT4 cells. Study of the treatment after viral absorption.
The MT4 cells were infected by 100 μl of HIV-1 virus for 3.10^5 cells in a volume of 1 ml. […]
At day +3, the cell suspensions were restored to 3.10^5 cells/ml after dilution with fresh medium. The product was added at the corresponding doses.
At day +7, the cytopathogenic effect was evaluated with the microscope after staining with trypan blue.

HIV-1 virus [2] = test: Replication of HIV-1 in macrophages of sero-negative donors, continuous culture (reverse transcriptase activity); format: cell-based
Method: (§1) The drugs 6651, AZT, 6714 and ddT were diluted in DMSO.
(§2) The virus HIV-1 utilized is derived from a culture supernatant of CEM-LAV 1 cells; these latter are maintained by the addition at each passage (every 3 or 4 days) of uninfected CEM cells. The titre of the virus in the clarified culture supernatant is higher than 10^6 cpm/ml in reverse transcriptase activity and 10^3 infectious units/ml on lymphocytes of sero-negative donors.
(§3) The macrophages were obtained from a deleucocytation pocket. The mononucleated cells were separated on a Ficoll^R gradient. The cells were adjusted to 50.10^6 cells/ml in the RPMI 1640 medium (MBA) containing 20% fetal calf serum (Flow), 10 mM Hepes (Sigma), 1% of PSN and 1% of glutamine (Gibco). After 1 h of incubation at 4° C. with gentle shaking, the macrophages agglutinate among themselves. The agglutinated macrophages are sedimented for 15 mn at 4° C. The supernatant containing an enrichment in lymphocytes was removed and the pellet enriched in macrophages was diluted to 5.10^6 cells/ml in the medium previously described. The cell suspension was then placed in Petri dishes of 60 mm diameter and placed at 37° C. for 1 h 30. The unattached cells are removed and the washed cell carpet was then detached with a scraper. The cells thus recovered were used directly for the study.
(§4) For this study, the production of HIV-1 virus by infected macrophages in the presence or absence of the drugs 6714 or ddT and 6651 or AZT were monitored either in continuous culture for at least 30 days or after lysis of the macrophages at day +14 and infection of lymphocytes by this lysate.
For each test, 15.10^6 cells were or were not infected with the HIV-1 virus (6000 cpm/10^6 cells). After 1 h of absorption at 37° C., the cells were placed in 6-wells Costar plates and 5.10^-5 M or 10^-5 M of the drugs 6714 and ddT and 10^-5 M, 10^-6 M or 10^-7 M of the drugs 6651 and AZT were added to the culture medium. The medium was changed every 3 or 4 days and the reverse transcriptase activity was determined in the culture supernatant. The drugs were added at each passage to the culture medium at the respective concentrations indicated above.
(§5) 3) Measurement of the reverse transcriptase activity
(§6) The reverse transcriptase activity is assayed starting from 1 ml of culture supernatant concentrated 100 times by ultra-centrifugation for 5 mn at 95.000 rpm (Rotor TL 100^R Beckman).
(§7) The pellet is resuspended in 10 μl of NTE Triton^R ×100 0.1%.
(§8) After 1 h at 37° C., the acid-insoluble products are precipitated by 20% trichloroacetic acid, filtered onto 0.45μ Millipore^R and the B radioactivity is measured with the aid of a Kontron scintillation counter.

HIV-1 virus [3] = test: Infection of activated lymphocytes by the lysates of infected macrophages (co-culture, reverse transcriptase activity); format: cell-based
Method: as §1, §2
The lymphocytes were isolated from the peripheral blood of sero-negative donors on a Ficoll^R gradient (MSL, Eurobio). The lymphocytes thus obtained were stimulated with the phytohemaglutinin p(PHA-p) for 3 days before their utilization.
The lymphocytes are cultivated in RPMI 1640 medium, supplemented with 10% of fetal calf serum, 10% of interleukin 2, 2 μg/ml of polybrene, 1% of glutamine, 1% of antibiotics.
as §3, §4
The quantity of cells placed in culture and the conditions of infection are identical with those previously described.
At day 14 after infection, the macrophages were lysed by two successive freezings to -20° C. and thawings at 37° C. The lysate recovered was then utilized as inoculum to infect 3.10^6 activated lymphocytes derived from a sero-negative donor. After 1 h of absorption, the lymphocytes were adjusted to 10^6 cells per ml and the drugs were added at the concentrations corresponding to those of the lysate.
The lymphocytes were subcultured every 3 or 4 days and an assay of the reverse transcriptase was carried out starting from the culture supernatant at each passage.
as §5, §6, §7, §8

| SMILES | Cytopathogenic Effect at Day +7 (HIV-1 virus [1]; 5 × 10^-6 M, Experiment No. 2) | Cytopathogenic Effect at Day +7 (HIV-1 virus [1]; 10^-5 M, Experiment No. 2) | Cytopathogenic Effect at Day +7 (HIV-1 virus [1]; 10^-6 M, Experiment No. 2) | minimal effective concentration (HIV-1 virus [1]; read-out: concentration at which the product inhibits the cytopathogenic potency of the virus) | proliferation of the HIV-1 virus in the macrophages (HIV-1 virus [2]; 5.10^-5 M and 10^-5 M) | viral production by activated lymphocytes with lysates of infected treated macrophages (general statement) (HIV-1 virus [3]; lysate at day 14) | viral production by activated lymphocytes, compared to untreated lysate (HIV-1 virus [3]; whatever the concentration tested (5.10^-5 M, 10^-5 M)) | multiplication of the HIV-1 virus in the macrophages (HIV-1 virus [3]; whatever the concentration tested, 5.10^-6 M or 10^-5 M) | Cytopathogenic Effect at Day +7 (HIV-1 virus [1]; 5 × 10^-6 M, Experiment No. 1) | Cytopathogenic Effect at Day +7 (HIV-1 virus [1]; 5 × 10^-7 M, Experiment No. 1) | Cytopathogenic Effect at Day +7 (HIV-1 virus [1]; 5 × 10^-7 M, Experiment No. 2) | Cytopathogenic Effect at Day +7 (HIV-1 virus [1]; 10^-5 M, Experiment No. 1) | Cytopathogenic Effect at Day +7 (HIV-1 virus [1]; 10^-6 M, Experiment No. 1) | minimal effective concentration (HIV-1 virus [1]; first experiment, MT4 cells, read-out: concentration at which the product inhibits the cytopathogenic effect) | minimal effective concentration (HIV-1 virus [1]; second experiment, MT4 cells, read-out: concentration at which the product inhibits the cytopathogenic effect) | proliferation of the HIV-1 virus in the macrophages (HIV-1 virus [2]; 10^-5 M, 10^-6 M and 10^-7 M) | viral production on the lymphocytes with the lysates of treated macrophages (HIV-1 virus [3]; 10^-5 M and 10^-6 M (FIG. 4c)) | multiplication of the HIV-1 virus at the interior of the macrophage (HIV-1 virus [3]; 10^-5 M and 10^-6 M, same result as AZT (no multiplication)) | multiplication of the HIV-1 virus in the macrophages (HIV-1 virus [3]; 10^-7 M) | viral production on the lymphocytes with the lysates of treated macrophages (HIV-1 virus [3]; 10^-7 M (FIG. 4c)) |
| --- | --- | --- | --- | --- | --- | --- | --- | --- | --- | --- | --- | --- | --- | --- | --- | --- | --- | --- | --- | --- |
| Cc1cn([C@H]2CC[C@@H](COP(=O)(O)OC[C@H]3OC(O)[C@H](O)[C@@H](O)[C@@H]3O)O2)c(=O)[nH]c1=O (some centres unmarked) [compound 6714, 6-glucosyl 5'-(3'-deoxy)-thymidinyl phosphate] | + (100% death of the cells at day +7) | - | + (100% death of the cells at day +7) | 10 µM | block the proliferation of the HIV-1 virus in the macrophages | make it possible to obtain a vital production by activated lymphocytes | comparable to the untreated lysate | there is multiplication of the HIV-1 virus in the macrophages, but the escape of the virus seems to be blocked |  |  |  |  |  |  |  |  |  |  |  |  |
| CCCCCCCCCCCCCCCCOP(=O)(OC[C@H]1OC(O)[C@H](O)[C@@H](O)[C@@H]1O)OC[C@H]1O[C@@H](n2cc(C)c(=O)[nH]c2=O)C[C@@H]1N=[N+]=[N-] (some centres unmarked) [compound 6651, 6-glucosyl hexadecyl 5'-(3'-azido) thymidinyl phosphate] | + (100% death of the cells at day +7) | - | + (100% death of the cells at day +7) |  |  |  |  |  | - | + (100% death of the cells at day +7) | + (100% death of the cells at day +7) | - | - | 1 µM | 10 µM | block the proliferation of the HIV-1 virus in the macrophages | no viral production is obtained on the lymphocytes | this same result is obtained | there is multiplication of the HIV-1 virus in the macrophages, but the escape of the virus seems to be blocked | A low viral production is observed |

Source: US5393744A, “Glucosyl phosphotriesters of thymidine” (Institut Pasteur, priority 1988, dated 1995)
